Measured values published in patent US8816095B2, “Na channels, disease, and related assays and compositions” (Georgetown University, priority 2008, dated 2014).

Tests used:
[1] = system: site 2 of the VGSC; assay: [3H]-BTX-B displacement assay at site 2; format: binding, rat; settings: for % [3H]-BTX Inhibition (40 μM) / % [3H]-BTX Displacement (40 μm): rat brain synaptoneurosomes; for % [3H]-BTX Inhibition (40 μM): Table 9; for % [3H]-BTX Displacement (40 μm): Table 13
[2] = target: T1, human Nav1.2 (Homo sapiens, UniProt Q99250); assay: hNav1.2 functional block, whole-cell patch clamp; format: cell-based
T1 construct: host or cells: HEK
Method: Of the 20 analogs tested, six had [^3H]-BTX displacement characteristics much greater then that of phenyloin (Table 7), see Schemes 5, 6, 7 and 8 for the chemical synthesis and structure of the tested compounds. Compound 26, having the greatest [^3H]-BTX displacement at 86% ([…]), was further tested for VGSC functional blocking ability in HEK cells stably expressing Nav1.2 (Table 8).
In addition the functional blocking ability of 9 was tested after site two affinities was confirmed. The potential reason for this increased blocking ability stems from the dansyl addition in a hydrophobically receptive region of the binding site in the VGSC (Anderson, J. D., et al. Mol. Cancer. Ther. 2003, 2, 1149-1154; Lenkowski, P et al. Neuropharmacology, 2007, 52, 1044-1054). This enhanced potency could be due to the dansyl substituent interacting with L1465 and 11469, located in S6 of domain III in the binding site, which are believed to be the source of hydrophobic receptivity 17. The ability to inhibit VGSC currents is an important property and represents functional blocking. The ability of CDPNS to inhibit sodium channel currents was assessed at 10 and 100 μM against human Nav1.2 by patch clamp assay (FIG. 10).
Human embryonic kidney cells (HEK) cells stably expressing human Nav1.2 were a kind gift from Dr. H. A. Hartmann (University of Baltimore, Md., USA) and were grown in DMEM/F12 media (Invitrogen, Corp, CA, USA) supplemented with 10% fetal bovine serum, penicillin (100 U/ml), streptomycin (100 μg/ml) and G418 (500 μg/ml; Sigma, Mo., USA). Cells were grown in a humidified atmosphere of 5% CO2 and 95% air at 37° C.
Sodium currents were recorded using the whole-cell configuration of the patch clamp recording technique with an Axopatch 200 amplifier (Axon Instruments, Foster City, Calif.). All voltage protocols were applied using pCLAMP 9 software (Axon, USA) and a Digidata 1322A (Axon, USA). Currents were amplified and low pass filtered (2 kHz) and sampled at 33 kHz. Borosilicate glass pipettes were pulled using a Brown-Flaming puller (model P87, Sutter Instruments Co, Novato, Calif.) and heat polished to produce electrode resistances of 0.5-1.5 MΩ when filled with the following electrode solution (in mM); CsCl 130, MgCl2 1, MgATP 5, BAPTA 10, HEPES 5 (pH adjusted to 7.4 with CsOH). Cells were plated on glass coverslips and superfused with solution containing the following composition; (in mM) NaCl 130, KCl 4, CaCl2 1, MgCl2 5, HEPES 5, and glucose 5 (pH adjusted to 7.4 with NaOH).
Compound 26 was prepared as 100 mM stock solutions in dimethyl sulfoxide (DMSO) and diluted to desired concentration in perfusion solution. The maximum DMSO concentration used was 0.1% and had no effect on current amplitude. All experiments were performed at room temperature (20-22° C.). After establishing whole-cell, a minimum series resistance compensation of 75% was applied. Sodium currents were elicited by a depolarizing step from a holding potential of −100 mV to +10 mV for a duration of 25 ms at 15 s intervals. Compound 26 was applied after a 3 min control period and continued until a steady state current amplitude was observed. All data represent percentage mean block±standard error of the mean (S.E.M.).

[3] = system: PC-3 cells; assay: PC-3 MTT cell viability assay; format: cell-based; settings: Homo sapiens, read-out: GI50 ± SEM (10 μM), DPH and JDA-3-135 previously determined
Description: Following the determination that compound CDPNS inhibits the VGSCs that are present in androgen independent PC-3 cells, a 3-(4,5-Dimethylthiazol-2-yl)-2,5-diphenyltetrazolium bromide (MTT) cell viability assay was utilized to measure the ability of compound CDPNS to inhibit PC-3 cell growth via VGSC blockade. In this experiment data yielded from CDPNS was compared to previously determined DPH and JDA-3-135 antiproliferation data (Table 10).

[4] = system: PC-3 cells; assay: PC-3 cell growth inhibition assay (WST-8); format: cell-based; settings: Homo sapiens, WST-8, 48 hours
Method: The effect of compound 2 was studied on the proliferation of human androgen independent prostate cancer (PC-3) cells, using a cell viability assay with WST-8. […].
PC-3 cells were added to the wells of a 96 well plate at 7500 cells per well in 100 uL of RPMI medium with 10% serum and allowed to plate down overnight. The medium was then removed and replaced with serum free medium containing the appropriate concentration of drug. DMSO concentration was kept below 1%. At this time WST-8 cell counting reagent was added to the control (T=0) wells and allowed to incubate for 2 hours and the absorbance was read at 450 nm to determine the starting number of cells per well. The plates were incubated for 48 hours, the medium was removed and the wells were washed with 100 uL of PBS. The PBS was removed that the wells were filled with 110 uL of serum free RPMI media containing the WST-8 reagent. After two hours of incubation, the plates absorbance was read at 450 nm and normalized to the control value.

[5] = system: human prostate tissue; assay: Staining of human prostate paraffin embedded tissue slices; settings: 100 μM
Method: The binding and localization of compound 26 in prostate and prostate cancer tissue was studied. Human prostate paraffin embedded tissue slices were stained with 100 μM of compound 26 and dansyl amine.

[6] = target: hNav1.2 (Homo sapiens, UniProt Q99250); settings: whole-cell patch clamp, hNav1.2 expressing HEK cells; read-out: hNav1.2 electrophysiology IC50; cited from earlier work
[7] = read-out: GI50 in PC3 prostate cancer cells

T1 sequence (Q99250 whole entry): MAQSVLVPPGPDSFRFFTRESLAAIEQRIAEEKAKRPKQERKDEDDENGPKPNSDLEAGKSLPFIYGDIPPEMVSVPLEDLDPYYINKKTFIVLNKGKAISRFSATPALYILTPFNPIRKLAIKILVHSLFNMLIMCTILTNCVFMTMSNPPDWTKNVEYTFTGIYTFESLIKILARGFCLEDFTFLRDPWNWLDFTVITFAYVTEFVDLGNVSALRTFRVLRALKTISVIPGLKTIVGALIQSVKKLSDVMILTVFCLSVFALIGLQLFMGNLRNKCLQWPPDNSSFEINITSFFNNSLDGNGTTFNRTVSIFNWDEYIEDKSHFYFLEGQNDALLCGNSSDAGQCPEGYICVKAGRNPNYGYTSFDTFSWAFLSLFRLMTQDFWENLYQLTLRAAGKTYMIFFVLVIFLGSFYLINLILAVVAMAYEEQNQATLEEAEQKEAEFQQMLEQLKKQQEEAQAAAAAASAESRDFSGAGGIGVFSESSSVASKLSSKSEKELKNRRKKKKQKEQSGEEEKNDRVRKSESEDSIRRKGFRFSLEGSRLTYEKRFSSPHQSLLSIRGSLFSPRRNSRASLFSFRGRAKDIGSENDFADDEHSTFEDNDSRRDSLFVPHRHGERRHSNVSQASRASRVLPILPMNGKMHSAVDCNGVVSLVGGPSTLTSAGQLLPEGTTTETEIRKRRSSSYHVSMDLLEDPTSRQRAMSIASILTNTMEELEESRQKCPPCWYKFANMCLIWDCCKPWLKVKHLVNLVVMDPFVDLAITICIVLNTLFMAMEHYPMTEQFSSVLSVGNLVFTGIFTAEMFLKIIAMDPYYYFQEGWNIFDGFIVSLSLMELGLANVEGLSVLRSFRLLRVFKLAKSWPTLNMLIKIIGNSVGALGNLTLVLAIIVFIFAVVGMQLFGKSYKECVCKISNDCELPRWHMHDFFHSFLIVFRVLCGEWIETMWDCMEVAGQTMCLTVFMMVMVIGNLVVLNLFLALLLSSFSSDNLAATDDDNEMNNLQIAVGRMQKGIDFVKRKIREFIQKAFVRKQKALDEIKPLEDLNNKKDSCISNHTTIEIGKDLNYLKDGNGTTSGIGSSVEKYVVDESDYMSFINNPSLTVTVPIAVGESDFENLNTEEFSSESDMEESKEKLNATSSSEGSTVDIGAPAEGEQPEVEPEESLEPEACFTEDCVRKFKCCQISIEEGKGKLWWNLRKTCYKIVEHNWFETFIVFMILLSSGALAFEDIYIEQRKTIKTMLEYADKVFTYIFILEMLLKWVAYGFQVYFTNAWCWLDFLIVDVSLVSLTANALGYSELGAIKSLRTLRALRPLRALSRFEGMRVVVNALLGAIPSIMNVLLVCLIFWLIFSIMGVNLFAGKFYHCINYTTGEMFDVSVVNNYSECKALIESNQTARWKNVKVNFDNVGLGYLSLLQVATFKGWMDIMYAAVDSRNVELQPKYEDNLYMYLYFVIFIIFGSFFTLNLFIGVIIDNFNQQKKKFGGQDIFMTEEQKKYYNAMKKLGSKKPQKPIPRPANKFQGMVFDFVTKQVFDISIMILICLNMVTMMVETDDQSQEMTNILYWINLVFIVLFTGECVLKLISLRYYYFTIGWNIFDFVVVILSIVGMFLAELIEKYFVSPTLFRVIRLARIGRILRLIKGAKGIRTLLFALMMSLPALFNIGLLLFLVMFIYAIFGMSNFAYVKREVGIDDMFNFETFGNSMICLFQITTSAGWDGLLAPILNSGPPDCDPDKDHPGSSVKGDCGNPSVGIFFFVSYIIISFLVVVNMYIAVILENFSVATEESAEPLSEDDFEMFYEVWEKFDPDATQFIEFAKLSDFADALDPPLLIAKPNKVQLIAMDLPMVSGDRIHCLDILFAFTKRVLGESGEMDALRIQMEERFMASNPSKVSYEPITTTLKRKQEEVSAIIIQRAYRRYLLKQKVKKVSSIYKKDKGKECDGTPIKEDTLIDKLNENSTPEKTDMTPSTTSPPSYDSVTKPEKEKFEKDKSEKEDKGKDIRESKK
hNav1.2, sequence (Q99250 whole entry): as above

Compound | % [3H]-BTX Inhibition (40 μM) [1] [%] | % [3H]-BTX Displacement (40 μm) [1] [%] | [3H]-BTX-B Binding Data, Displacement % ([1]; Screen at 40 μM, 2 replicates, referenced to Aconitine) [%] | % hNaV 1.2 Functional Block (10 μM) ([2]; Table 8) [%] | % hNaV 1.2 Functional Block (10 μM) ([2]; Table 8, listed as CDPNS) [%] | % hNaV 1.2 Functional Block (10 μM) ([2]; Table 9) [%] | % hNaV 1.2 Functional Block (10 μM) ([2]; Table 9, listed as CDPNS) [%] | GI50 [3] [µM] | GI50 [4, 7] [µM] | GI50 ([4]; read-out: PC3 GI50 (μg)) [µM] | binding to human prostate tissue (microscopy) [5] | % Nav 1.2 Functional Block (10 μm) ([2]; 10 μm, Table 13) [%] | IC50 [6] [µM]
CN(C)c1cccc2c(S(=O)(=O)NCCCCCC3(c4cccc(Cl)c4)NC(=O)NC3=O)cccc12 (centres unmarked) [Compound 26, N-(5-(4-(3-chlorophenyl)-2,5-dioxoimidazolidin-4-yl)pentyl)-5-(dimethylamino)naphthalene-1-sulfonamide] | 86.4 | 86.4 | 86 | 58.9±4.1 | 58.9±4.15 | 58.9 ± 4.1 | 58.9±4.1 | 36 | 9.95 ± 0.07 | 9.95 ± 0.07 | visible due to binding | – | –
CCCCCCCC1(c2cccc(Cl)c2)NC(=O)NC1=O (centres unmarked) [JDA-3-135] | 69.6 | 69.6 | – | 30.5 ± 5.1 | – | 30.5 ± 5.1 | – | 18.6 ± 1.5 | 18.97 ± 0.04 | 18.97 ± 0.04 | – | 30.5 ± 5.1 | 13.9
